Results taken from patent publication US20230286995A1, “METABOLICALLY STABLE PYRIMIDINYL DIHYDROQUINOXALINONES AS TUBULIN POLYMERIZATION INHIBITORS” (UNIVERSITY OF TENNESSEE RESEARCH FOUNDATION, priority 2022, published 2023).
Entries after “also recorded” stand apart in the source; their conditions may differ. Where two headings read alike, the source gives them in different places.

Legend:
[1] = system: RPMI-7951; test: Cytotoxicity assay (MTS, 72 h); assay type: cell-based; conditions: Homo sapiens, Table 1, read-out: IC50 (nM) Melanoma RPMI-7951
[2] = system: MDA-MB-231; test: Cytotoxicity assay (MTS, 72 h); assay type: cell-based; conditions: Homo sapiens
[3] = system: MDA-MB-453; test: Cytotoxicity assay (MTS, 72 h); assay type: cell-based, human; conditions: Homo sapiens, MDA-MB-453
[4] = system: MDA-MB-468; test: Cytotoxicity assay (MTS, 72 h); assay type: cell-based, human; conditions: Homo sapiens, MDA-MB-468; Table 1; read-out: IC50 (nM) Breast MDA-MB-468
[5] = logP; assay type: physicochemical; conditions: Table 1; method not described
[6] = system: A375/TxR; test: Cytotoxicity assay (MTS, 72 h); assay type: cell-based; conditions: Homo sapiens, read-out: IC50 ± SEM (nM) A375/TxR
[7] = system: M14/LCC6MDR1; test: Cytotoxicity assay (MTS, 72 h); assay type: cell-based; conditions: Homo sapiens, read-out: IC50 ± SEM (nM) M14/LCC6MDR1
[8] = system: MDA-MB-231/TxR; test: Cytotoxicity assay (MTS, 72 h); assay type: cell-based; conditions: Homo sapiens
[9] = system: MDA-MB-231/VxR; test: Cytotoxicity assay (MTS, 72 h); assay type: cell-based; conditions: Homo sapiens
[10] = system: DU-145/VxR; test: Cytotoxicity assay (MTS, 72 h); assay type: cell-based; conditions: Homo sapiens, DU-145, read-out: IC50 ± SEM (nM) DU-145/VXR
[11] = system: PANC-1; test: Cytotoxicity assay (MTS, 72 h); assay type: cell-based; conditions: Homo sapiens
Protocol: Mia PaCa-2 and PANC-1 cells were seeded in 96-well plates at 4000 and 5000 cells per well, respectively.
Cytotoxicity Assay. […] Each experiment consisted of four replicates.

[12] = system: human melanoma and breast cancer cell lines; test: Cytotoxicity, all tested cell lines of Table 1; assay type: cell-based; conditions: Homo sapiens, melanoma and breast lines of Table 1; read-out: IC50 values, range over all tested cell lines
[13] = system: taxane-resistant melanoma, breast, and lung cancer cells; test: Cytotoxicity, regular and taxane-resistant lines of Table 2; assay type: cell-based; conditions: Homo sapiens
[14] = system: A375/TxR cells; test: Clonogenic assay; assay type: cell-based, human; conditions: 7 days
Protocol: In case of clonogenic assay, A375/TxR cells were seeded in 6-well plates at very low concentration (1000 cells/well). […] Medium was replaced with fresh drug once during the treatment. Cells were then fixed with cold methanol and stained with 0.5% crystal violet. Colony area density was quantified using the Keyence Hybrid Cell Count module.
(§1) Cell proliferation inhibition assay: The cell proliferation inhibitory effects of tested compounds were first determined through MTS assay as previously described. In short, 3000 to 7500 cells were added to a 96-well cell culture plate followed by the treatment of the test compounds (0.1 nM to 3 μM) in quadruplicate after seeding and overnight incubation. After 72 hours of treatment, MTS (Promega) was added to the wells and the absorbance was measured at […] after incubating for 1.5 to 2 h. […] Briefly, A375/TxR cells (1000 cells/well) were treated with growth medium containing 0.5 nM, 1 nM, or 2 nM of 5v and incubated for over 7 days (the incubation medium was changed every 3 days). After fixing and staining with 0.5% crystal violet, the cell colonies were quantified by the Hybrid Counting module of the Keyence BZ-X700 microscope. The assay was performed in triplicate.

[15] = system: A375/TxR cells; test: Wound healing (scratch) assay; assay type: cell-based, human
Protocol: Scratch-wound assay: The anti-migration effect of 5v was determined by a scratch-wound assay using an IncuCyte S3 live-cell imager as previously reported. After overnight incubation, the monolayers of A375/TxR cells were scratched by a WoundMaker (Essen BioScience) and the cells were treated with 5v (0.5 nM, 1 nM, 2 nM, and 5 nM) for 48 h. The wounds were imaged every 2 h by IncuCyte and the relative wound density was calculated by IncuCyte Scratch Wound Software Module. The assay was performed in quadruplicate.

[16] = system: A375/TxR xenografts; test: In vivo A375/TxR melanoma xenograft model; design: species or system NSG mice; conditions: for decrease in tumor weight vs vehicle group / tumor reduction / tumor growth inhibition vs control: 2 times per week
[17] = system: MDA-MB-231/VxR xenografts; test: Orthotopic MDA-MB-231/VxR xenograft model; assay type: in vivo, NSG mice; conditions: 5m IV 1×/wk; Compound 17ya 20 mg/kg 3×/wk
[18] = Toxicity of 5m at higher dose in mice; assay type: in vivo; conditions: 5 mg/kg
[19] = in vitro; conditions: human, liver microsomes
[20] = in vitro; conditions: mouse, liver microsomes
[21] = Microsomal stability assay; conditions: Table 3; liver microsomes; mean (% CV)
[22] = system: M14; test: Cytotoxicity assay (MTS, 72 h); conditions: Homo sapiens
[23] = Tolerability assessment of 5v in healthy mice; assay type: in vivo
[24] = system: A375/TxR, M14/LCC6MDR1, MDA-MB-231/TxR, PC3/TxR, and DU145/TxR; test: Cell proliferation inhibition assay (MTS), paclitaxel-resistant panel; assay type: cell-based, human
Protocol: as §1

[25] = MDA-MB-231, read-out: IC50 in MDA-MB-231 parental line
[26] = MDA-MB-231, read-out: IC50 ± SEM (nM) MDA-MB-231, Table 2
[27] = Table 1, read-out: IC50 (nM) Breast MDA-MB-453
[28] = MDA-MB-231, read-out: IC50 ± SEM (nM) MDA-MB-231/VXR
[29] = taxane-resistant melanoma, breast, and lung cancer cells, read-out: IC50 values, range against taxane-resistant cells
[30] = M14, read-out: IC50 (nM) Melanoma M14
[31] = M14, read-out: IC50 ± SEM (nM) M14
[32] = H&E and anti-human mitochondria IHC

COc1ccc2c(c1)NC(=O)CN2c1nc(C)nc2c1CCC2 [Compound 5m, 7-methoxy-4-(2-methyl-6,7-dihydro-5H-cyclopenta[d]pyrimidin-4-yl)-3,4-dihydroquinoxalin-2(1H)-one]
IC50 [1]: 1.5 ± 0.4 nM
IC50 [2, 25]: 1 to 2.2 nM
IC50 [2, 26]: 1.7 ± 0.4 nM
IC50 [3, 27]: 0.5 ± 0.1 nM
IC50 [4]: 1.8 ± 0.4 nM
logP [5]: 2.96
IC50 [6]: 1.1 nM
IC50 [7]: 1.4 ± 0.3 nM
IC50 ([8]; read-out: IC50 ± SEM (nM) MDA-MB-231/TxR): 1.5 ± 0.3 nM
IC50 ([9]; MDA-MB-231, 72 h, read-out: IC50 in Compound 17ya resistant MDA-MD-231/VxR cells): 1.2 to 2.9 nM
IC50 [9, 28]: 2.3 ± 0.4 nM
IC50 [10]: 3.7 ± 0.6 nM
IC50 ([11]; Example 7, FIG. 20, read-out: calculated IC50, PANC-1 cells): 2.7 nM
IC50 [12]: 0.4 to 26 nM
IC50 ([13]; melanoma, breast and lung cancer cell lines, read-out: IC50 values, range against regular and paclitaxel-resistant lines): 1 to 5 nM
IC50 [13, 29]: 0.3 to 5 nM
colony formation of A375/TxR cells [14]: completely inhibited the colony formation at high dose, i.e., 2 nM
migration of A375/TxR cells [15]: markedly inhibited the migration of A375/TxR cells
decrease of final tumor volume vs vehicle ([16]; 2.5 mg/kg IV, 7 doses within 24 days): 64.6%
tumor growth of MDA-MB-231/VxR xenografts [17]: flat tumor growth curve
toxicity at higher dose [18]: had toxicity
CLint scaled at 1 μg/mL [19]: 13 mL/min/kg
CLint scaled at 1 μg/mL [20]: 48 mL/min/kg
Metabolic stability in rat t1/2 [21]: 8.0 min
Metabolic stability in rat t1/2 (min) [21]: 7.97 (0.7) min
IC50 [22, 30]: 1.4 ± 0.4 nM
IC50 [22, 31]: 1.3 ± 0.2 nM

CCNc1nc2c(c(N3CC(=O)Nc4cc(OC)ccc43)n1)CCC2 [Compound 5v, 4-(2-(ethylamino)-6,7-dihydro-5H-cyclopenta[d]pyrimidin-4-yl)-7-methoxy-3,4-dihydroquinoxalin-2(1H)-one]
IC50 [1]: 0.5 ± 0.1 nM
IC50 ([2]; MDA-MB-231, read-out: IC50 (nM) Breast Cancer MDA-MB-231, Table 6): 2.6 ± 0.5 nM
IC50 ([2]; MDA-MB-231, read-out: IC50 (nM) Breast MDA-MB-231, Table 1): 0.7 ± 0.1 nM
IC50 [2, 25]: 1 to 2.2 nM
IC50 [2, 26]: 1 ± 0.2 nM
IC50 [3, 27]: 0.43 ± 0.1 nM
IC50 ([3]; Table 6, read-out: IC50 (nM) Breast Cancer MDA-MB-453): 1.3 ± 0.5 nM
IC50 [4]: 0.8 ± 0.1 nM
logP [5]: 2.39
IC50 ([6]; Table 2, paclitaxel-resistant): 0.3 ± 0.03 nM
IC50 ([7]; Table 2, multidrug-resistant): 0.3 ± 0.03 nM
IC50 ([8]; read-out: IC50 ± SEM (nM) MDA-MB-231/TxR, Table 2, paclitaxel-resistant): 0.6 ± 0.1 nM
IC50 [9, 28]: 1.2 ± 0.3 nM
IC50 [10]: 1 ± 0.1 nM
IC50 ([11]; Table 6, read-out: IC50 (nM) Pancreatic cancer PANC-1): 3.7 ± 0.7 nM
IC50 [12]: 0.4 to 26 nM
IC50 [13, 29]: 0.3 to 5 nM
colony formation of A375/TxR cells [14]: inhibit the proliferation of A375/TxR cell colonies in a concentration-dependent manner
migration of A375/TxR cells [15]: remarkable potency in inhibiting the cell migration of A375/TxR cells
decrease in tumor weight vs vehicle group ([16]; 2 mg/kg IV): 47.4%
tumor reduction / tumor growth inhibition vs control ([16]; 2 mg/kg IV): 62.3%
toxicity to major organs (heart, kidney, spleen), H&E ([16]; 2 mg/kg or 4 mg/kg, three weeks): no obvious damage to the major organs; also recorded: no toxicity to major organs
cleaved caspase-3 in tumors, IHC ([16]; 2 mg/kg, 4 mg/kg): significantly increased the proportion of cleaved caspase-3 positive cells
decrease in tumor weight vs vehicle group ([16]; 4 mg/kg IV): 59.9%
tumor reduction / tumor growth inhibition vs control ([16]; 4 mg/kg IV): 76.6%
Ki67 and CD31 expression in tumors, IHC ([16]; 2 and 4 mg/kg): significantly decreased
spontaneous liver metastasis [16, 32]: significant inhibition of lung or liver metastasis
spontaneous lung metastasis [16, 32]: significant inhibition of lung or liver metastasis
mouse body weight during therapy ([16]; all doses tested): no body weight loss observed
tumor necrosis, H&E ([16]; mouse, in vivo): more necrotic cells in 5v-treated tumors
tolerability ([23]; 5 mg/kg IP, five times a week): still healthy; also recorded: tolerated at 5 mg/kg IP
tolerability ([23]; 5 mg/kg and 10 mg/kg IV, 2 times a week): safe and no acute toxicity
tolerability ([23]; 10 mg/kg IP, five times a week): toxic to mice; also recorded: not 10 mg/kg IP
IC50 level in paclitaxel-resistant cancer cells [24]: sub-nanomolar level
half-life at 1 μg/mL [19]: 24.7 min
microsomal CLint at 1 μg/mL [19]: 28.1 µL/min/mg
half-life at 1 μg/mL [20]: 6.33 min
microsomal CLint at 1 μg/mL [20]: 109 µL/min/mg
Metabolic stability in rat t1/2 [21]: 3.6 min
IC50 ([22]; M14, read-out: IC50 (nM) Melanoma Cancer M14): 1.5 ± 0.3 nM
IC50 [22, 30]: 0.6 ± 0.1 nM
IC50 [22, 31]: 0.3 ± 0.04 nM
